{
  "source": "patent US6776987B1",
  "about": "“Enhancement of cardiac chronotropy” (Massachusetts Institute of Technology, priority 1998, dated 2004)",
  "key": {"[1]": {"test_system": "cultured fetal murine myocardial cells", "assay": "In vitro myocyte contractile recruitment: percentage of beating and fast beating GFP-positive transfected myocytes", "assay_type": "cell-based, B6D2F1 fetal mice", "protocol": "(§1) Cultured fetal murine myocardial cells were prepared as previously described (Iwaki, K. et al., J Biol Chem., 265(23):13809-17 (1990); Sen, A. et al., J Clin Invest., 82 (4):1333-8 (1988)). Myocytes from ventricles of 17.5 day old B6D2F1 fetal mice were fragmented with a straight-edge razor. The tissue was then digested with 0.5 mg/ml collagenase II (Worthington Biochemical Corp., Freehold, N.J.) and 1.0 mg/ml pancreatin (Sigma Chemical Co., St. Louis, Mo.) in ADS buffer (116 mM NaCl, 20 mM HEPES, 1 MM NaH2PO4, 5.5 mM glucose, 5.4 mM KCl, 0.8 mM MgSO4, pH 7.4) at 37° C. for 10 min. The cells were centrifuged at 700 g at 4° C. for 5 min. The cells were then plated onto 48-well plates (Falcon Labware, Cockeysville, Md.) precoated with 1% gelatin or onto 25 mm^2 square coverslips precoated with 1% gelatin and 20 μg/ml laminin at a density of 10^5 cell/ml in Dulbecco's modified Eagle's media (DMEM) supplemented with 10% fetal calf serum (FCS), and Streptomycin 100 μg/ml, and Penicillin (500 μg/mL). The myocytes were grown at 37° C. in 5% CO2.\nThe transfection of myocytes with lipofection was optimized. Myocytes were plated as described above and grown overnight. The β2AR, LacZ, or GFP expression circular vectors (1:2.5 M/M; 0.125 μg total DNA/well) were incubated with Lipofectamine (Life Technologies) (12.5 μl/well) in Opti-Mem I (Life Technologies) reduced serum medium(12.5 μl/well) for 30 min at 25° C. After incubation, DMEM (100 μl/well) was added. The myocyte cultures were washed with PBS twice, the Lipofectamine-DNA mixtures were added, and the cultures incubated at 37° C. After 4 hours, an equal volume of DMEM with 20% FCS was added to the cultures. The cultures were incubated overnight and the medium was changed to DMEM with 10% FCS.\nThe myocytes were assayed 48 hr after transfection. […]\nThe percentage of beating myocytes was determined for cells transfected with either the β2AR expression vector or the control construct. […] In addition, the percentage of myocytes that were beating faster than 60 beats per minute (bpm) was determined in identical fashion. […]"}, "[2]": {"test_system": "cultured fetal murine myocardial cells", "assay": "Average rate of myocyte contraction by video edge motion detector", "assay_type": "cell-based, B6D2F1 fetal mice", "details": "control transfected cells in the presence of 10^-3 M isoproterenol", "protocol": "as §1\nThe transfection of myocytes with lipofection was optimized. […]\nThe average rate of myocyte contraction was quantitated by motion detector under both baseline and 10^−3 M isoproterenol. […] The statistical significance of the increased rate of myocyte contraction was determined by Student's t-Test analysis."}},
  "data": [
    {"compound": "CC(C)NCC(O)c1ccc(O)c(O)c1", "note": "(stereo not shown) [isoproterenol]", "values": [
      {"measurement": "percentage of myocytes contracting", "setting": "[1]; control LacZ transfected myocytes, increasing concentrations of isoproterenol (0-10^-3 M)", "result": 69, "unit": "%"},
      {"measurement": "percentage of myocytes with chronotropic rates greater than 60 bpm (fast beating cells)", "setting": "[1]; control transfected cells at 10^-3 M isoproterenol", "result": 54, "unit": "%"},
      {"measurement": "effect on number of contracting myocytes", "setting": "[1]; β2AR transfected myocytes, addition of isoproterenol", "result": "failed to increase"},
      {"measurement": "average rate of contraction", "setting": "[2]", "result": "75+/−18 bpm"}
    ]}
  ]
}
